Data on 16 compounds can be found in ChEMBL document CHEMBL5370604, “Identification of Micrococcin P2-Derivatives as Antibiotic Candidates against Two Gram-Positive Pathogens” (J Med Chem, 2023).

The subject of series [1] is Staphylococcus aureus. Kind of series: Antibacterial activity against Staphylococcus aureus ATCC 4330 assessed as inhibition of bacterial growth measured after 16 to 24 hrs by CLSI based broth dilution method. It is filed as functional. The settings on record: time 16-24 hrs. On the technique in general: Dilution methods test growth across graded concentrations, often in twofold steps.

Series [2] concerns Clostridioides difficile. Put plainly: Antibacterial activity against Clostridioides difficile ATCC 43255 assessed as inhibition of bacterial growth measured after 24 hrs by CLSI based broth dilution method. It is filed as functional.
Series [3] can be described thus: Aqueous kinetic solubility of the compound at pH 7.4 incubated for 2 hrs by UPLC-MS analysis. In kind it is physicochemical. The following applies: read-out: Kinetic_solubility.
Series [4] concerns Clostridioides difficile. Kind of series: Antibacterial activity against Clostridioides difficile RT014/ST14/A+B+ assessed as inhibition of bacterial growth measured after 24 hrs by CLSI based broth dilution method. It is filed as functional.
In series [5] the test system is Clostridioides difficile. Put plainly: Antibacterial activity against Clostridioides difficile RT293/ST129/A+B+ assessed as inhibition of bacterial growth measured after 24 hrs by CLSI based broth dilution method. It is filed as functional.
Series [6] relates to Clostridioides difficile. Put plainly: Antibacterial activity against Clostridioides difficile RT001/ST3/A+B+ assessed as inhibition of bacterial growth measured after 24 hrs by CLSI based broth dilution method. It is filed as functional.
Series [7] deals with Clostridioides difficile. Put plainly: Antibacterial activity against Clostridioides difficile RT002/ST8/A+B+ assessed as inhibition of bacterial growth measured after 24 hrs by CLSI based broth dilution method. In kind it is functional.
The subject of series [8] is Clostridioides difficile. Kind of series: Antibacterial activity against Clostridioides difficile RT018/ST17/A+B+ assessed as inhibition of bacterial growth measured after 24 hrs by CLSI based broth dilution method. In kind it is functional.
Series [9] has as its system Clostridioides difficile. Put plainly: Antibacterial activity against Clostridioides difficile RT130/ST5/A+B+CDT+ assessed as inhibition of bacterial growth measured after 24 hrs by CLSI based broth dilution method. It is filed as functional.
The subject of series [10] is Clostridioides difficile. Kind of series: Antibacterial activity against Clostridioides difficile NT/ST67/A+B+CDT+ assessed as inhibition of bacterial growth measured after 24 hrs by CLSI based broth dilution method. In kind it is functional.
Series [11] concerns Clostridioides difficile. Put plainly: Antibacterial activity against Clostridioides difficile RT027/ST1/A+B+CDT+ assessed as inhibition of bacterial growth measured after 24 hrs by CLSI based broth dilution method. It is filed as functional.
Series [12] has as its system Clostridioides difficile. Kind of series: Antibacterial activity against Clostridioides difficile RT078/ST11/A+B+CDT+ assessed as inhibition of bacterial growth measured after 24 hrs by CLSI based broth dilution method. It is filed as functional.
In series [13] the test system is Clostridioides difficile. Put plainly: Antibacterial activity against Clostridioides difficile RT017/ST37/A-B+ assessed as inhibition of bacterial growth measured after 24 hrs by CLSI based broth dilution method. It is filed as functional.
Series [14] deals with Clostridioides difficile. Kind of series: Antibacterial activity against Clostridioides difficile RT012/ST54/A+B+ assessed as inhibition of bacterial growth measured after 24 hrs by CLSI based broth dilution method. It is filed as functional.
For series [15], the system named is Clostridioides difficile. Put plainly: Antibacterial activity against Clostridioides difficile RT015/ST35/A+B+ assessed as inhibition of bacterial growth measured after 24 hrs by CLSI based broth dilution method. It is filed as functional.
Series [16] relates to Clostridioides difficile. Put plainly: Antibacterial activity against Clostridioides difficile NT/ST221/A+B+CDT+ assessed as inhibition of bacterial growth measured after 24 hrs by CLSI based broth dilution method. It is filed as functional.
Series [17] deals with Staphylococcus aureus. Put plainly: Antibacterial activity against methicillin-resistant Staphylococcus aureus assessed as inhibition of bacterial growth measured after 16 to 24 hrs by CLSI based broth dilution method. It is filed as functional. The following applies: time 16-24 hrs.

Values after ≈ are worked out from the molar mass of the structure shown.

As for `C/C=C(\NC(=O)c1csc(-c2csc(-c3ccc4c(n3)-c3csc(n3)[C@H]([C@@H](C)O)NC(=O)c3csc(n3)[C@H](C(C)C)NC(=O)c3csc(n3)/C(=C/C)NC(=O)[C@H]([C@@H](C)O)NC(=O)c3csc-4n3)n2)n1)C(=O)NCCN1CCOCC1`, the MIC with Staphylococcus aureus [1] and with Clostridioides difficile [2] was 1 µg/mL (≈ 0.834 µM) in each case.

For `C/C=C1\NC(=O)[C@H]([C@@H](C)O)NC(=O)c2csc(n2)-c2ccc(-c3nc(-c4nc(C(=O)NC5(C(=O)NCCCN6CCN(C(C)C)CC6)CC5)cs4)cs3)nc2-c2csc(n2)[C@H]([C@@H](C)O)NC(=O)c2csc(n2)[C@H](C(C)C)NC(=O)c2csc1n2.Cl`, the solubility kinetic at 2 h in series [3] amounted to 2.8 µg/mL.

For `C/C=C(\NC(=O)c1csc(-c2csc(-c3ccc4c(n3)-c3csc(n3)[C@H]([C@@H](C)O)NC(=O)c3csc(n3)[C@H](C(C)C)NC(=O)c3csc(n3)/C(=C/C)NC(=O)[C@H]([C@@H](C)O)NC(=O)c3csc-4n3)n2)n1)C(=O)NCCn1cc([N+](=O)[O-])nc1C`, the MIC (as a rule, the smallest concentration in the dilution series that meets the test's criterion for growth inhibition) in the series on Staphylococcus aureus [1] was determined as 1 µg/mL (≈ 0.807 µM); in the series on Clostridioides difficile [2] it was 0.25 µg/mL (≈ 0.202 µM).

For `C/C=C1\NC(=O)[C@H]([C@@H](C)O)NC(=O)c2csc(n2)-c2ccc(-c3nc(-c4nc(C(=O)NC5(C(=O)NCCCN6C(=O)CNC6=O)CC5)cs4)cs3)nc2-c2csc(n2)[C@H]([C@@H](C)O)NC(=O)c2csc(n2)[C@H](C(C)C)NC(=O)c2csc1n2`, the MIC with Clostridioides difficile [4] was found to be 0.5 µg/mL (≈ 0.408 µM); in the series with Clostridioides difficile [5], 0.5 µg/mL (≈ 0.408 µM); with Staphylococcus aureus [1] it was 1 µg/mL (≈ 0.815 µM); with Clostridioides difficile [6], 0.25 µg/mL (≈ 0.204 µM); in the series with Clostridioides difficile [2], 0.125 µg/mL (≈ 0.102 µM); in the series with Clostridioides difficile [7] it was 0.5 µg/mL (≈ 0.408 µM). Besides, the MIC was found to be 0.25 µg/mL (≈ 0.204 µM) with Clostridioides difficile [8]; 0.5 µg/mL (≈ 0.408 µM) in the series on Clostridioides difficile [9]; 0.5 µg/mL (≈ 0.408 µM) in the series on Clostridioides difficile [10]; 0.5 µg/mL (≈ 0.408 µM) in the series on Clostridioides difficile [11]; 0.5 µg/mL (≈ 0.408 µM) in the series with Clostridioides difficile [12]; 0.5 µg/mL (≈ 0.408 µM) with Clostridioides difficile [13]. Moreover, the values for the MIC in the series with Clostridioides difficile [14], in the series on Clostridioides difficile [15] and with Clostridioides difficile [16] were 0.5 µg/mL (≈ 0.408 µM), 0.25 µg/mL (≈ 0.204 µM) and 0.5 µg/mL (≈ 0.408 µM), respectively.

In the case of `C/C=C(\NC(=O)c1csc(-c2csc(-c3ccc4c(n3)-c3csc(n3)[C@H]([C@@H](C)O)NC(=O)c3csc(n3)[C@H](C(C)C)NC(=O)c3csc(n3)/C(=C/C)NC(=O)[C@H]([C@@H](C)O)NC(=O)c3csc-4n3)n2)n1)C(=O)NCCN1CCN(C(C)C)CC1.Cl`, the solubility kinetic at 2 h in series [3] stood at 3 µg/mL.

Take `C/C=C1\NC(=O)[C@H]([C@@H](C)O)NC(=O)c2csc(n2)-c2ccc(-c3nc(-c4nc(C(=O)NC5(C(=O)NCCn6cc([N+](=O)[O-])nc6C)CC5)cs4)cs3)nc2-c2csc(n2)[C@H]([C@@H](C)O)NC(=O)c2csc(n2)[C@H](C(C)C)NC(=O)c2csc1n2`: the minimal inhibitory concentration (MIC) was 1 µg/mL (≈ 0.807 µM) with Staphylococcus aureus [1] and 0.5 µg/mL (≈ 0.403 µM) in the series with Clostridioides difficile [2].

Regarding `C/C=C(\NC(=O)c1csc(-c2csc(-c3ccc4c(n3)-c3csc(n3)[C@H]([C@@H](C)O)NC(=O)c3csc(n3)[C@H](C(C)C)NC(=O)c3csc(n3)/C(=C/C)NC(=O)[C@H]([C@@H](C)O)NC(=O)c3csc-4n3)n2)n1)C(=O)NCC(C)=O`, the solubility kinetic at 2 h in [3] came out at 0.07 µg/mL (≈ 0.0613 µM). Also, the MIC in the series on Staphylococcus aureus [1] worked out at 0.5 µg/mL (≈ 0.438 µM); in the series with Clostridioides difficile [2], 1 µg/mL (≈ 0.875 µM).

In the case of `C/C=C1\NC(=O)[C@H]([C@@H](C)O)NC(=O)c2csc(n2)-c2ccc(-c3nc(-c4nc(C(=O)NC5(C(=O)NCCn6ccnc6[N+](=O)[O-])CC5)cs4)cs3)nc2-c2csc(n2)[C@H]([C@@H](C)O)NC(=O)c2csc(n2)[C@H](C(C)C)NC(=O)c2csc1n2`, the MIC with Staphylococcus aureus [1] was found to be 1 µg/mL (≈ 0.816 µM); in the series on Clostridioides difficile [2] it was 0.5 µg/mL (≈ 0.408 µM).

In the case of `C/C=C1\NC(=O)[C@H]([C@@H](C)O)NC(=O)c2csc(n2)-c2ccc(-c3nc(-c4nc(C(=O)NC5(C(=O)NCCCN6CCN(C(C)C)CC6)CC5)cs4)cs3)nc2-c2csc(n2)[C@H]([C@@H](C)O)NC(=O)c2csc(n2)[C@H](C(C)C)NC(=O)c2csc1n2`, the solubility kinetic at 2 h in series [3] is 120 µg/mL (≈ 95.6 µM). For the same compound, the MIC in the series with Staphylococcus aureus [1] and in the series with Clostridioides difficile [2] was 1 µg/mL (≈ 0.797 µM) throughout.

In the case of `C/C=C1\NC(=O)[C@H]([C@@H](C)O)NC(=O)c2csc(n2)-c2ccc(-c3nc(-c4nc(C(=O)NC5(C(=O)NCCN6CCOCC6)CC5)cs4)cs3)nc2-c2csc(n2)[C@H]([C@@H](C)O)NC(=O)c2csc(n2)[C@H](C(C)C)NC(=O)c2csc1n2`, the MIC with Staphylococcus aureus [1] worked out at 1 µg/mL (≈ 0.834 µM); with Clostridioides difficile [2] it was 2 µg/mL (≈ 1.67 µM).

On to `C/C(=C\C(=O)OCCCCCCCCC(=O)O)C[C@@H]1OC[C@H](C[C@@H]2O[C@H]2[C@@H](C)[C@H](C)O)[C@@H](O)[C@H]1O` [MUPIROCIN], for which the MIC50 (as a rule, the lowest concentration that inhibits either 50% of growth or 50% of the strains tested, depending on the study) in the series on Staphylococcus aureus [17] is greater than 8 µg/mL.

With `C/C=C1\NC(=O)[C@H]([C@@H](C)O)NC(=O)c2csc(n2)-c2ccc(-c3nc(-c4nc(C(=O)NC5(C(=O)NCCCN6CCOCC6)CC5)cs4)cs3)nc2-c2csc(n2)[C@H]([C@@H](C)O)NC(=O)c2csc(n2)[C@H](C(C)C)NC(=O)c2csc1n2`, the MIC in the series on Staphylococcus aureus [1] and in the series with Clostridioides difficile [2] was 1 µg/mL (≈ 0.824 µM) in each case.

Take `C/C=C(\NC(=O)c1csc(-c2csc(-c3ccc4c(n3)-c3csc(n3)[C@H]([C@@H](C)O)NC(=O)c3csc(n3)[C@H](C(C)C)NC(=O)c3csc(n3)/C(=C/C)NC(=O)[C@H]([C@@H](C)O)NC(=O)c3csc-4n3)n2)n1)C(=O)NCCn1ccnc1[N+](=O)[O-]`: the values for the MIC with Staphylococcus aureus [1] and in the series with Clostridioides difficile [2] were 1 µg/mL (≈ 0.816 µM) and 0.5 µg/mL (≈ 0.408 µM), respectively.

For the compound `C/C=C1\NC(=O)[C@H]([C@@H](C)O)NC(=O)c2csc(n2)-c2ccc(-c3nc(-c4nc(C(=O)NC5(C(=O)NCCn6c([N+](=O)[O-])cnc6C)CC5)cs4)cs3)nc2-c2csc(n2)[C@H]([C@@H](C)O)NC(=O)c2csc(n2)[C@H](C(C)C)NC(=O)c2csc1n2`, the MIC in the series with Staphylococcus aureus [1] and in the series on Clostridioides difficile [2] was 0.5 µg/mL (≈ 0.403 µM) throughout.

`C/C=C(\NC(=O)c1csc(-c2csc(-c3ccc4c(n3)-c3csc(n3)[C@H]([C@@H](C)O)NC(=O)c3csc(n3)[C@H](C(C)C)NC(=O)c3csc(n3)/C(=C/C)NC(=O)[C@H]([C@@H](C)O)NC(=O)c3csc-4n3)n2)n1)C(=O)NCCCN1CCOCC1`: the MIC in the series on Staphylococcus aureus [1] amounted to 1 µg/mL (≈ 0.824 µM); in the series on Clostridioides difficile [2], 0.5 µg/mL (≈ 0.412 µM).

With `C/C=C1\NC(=O)[C@H]([C@@H](C)O)NC(=O)c2csc(n2)-c2ccc(-c3nc(-c4nc(C(=O)NC5(C(=O)NCCN6C(=O)CNC6=O)CC5)cs4)cs3)nc2-c2csc(n2)[C@H]([C@@H](C)O)NC(=O)c2csc(n2)[C@H](C(C)C)NC(=O)c2csc1n2`, the figures for the MIC in the series on Staphylococcus aureus [1] and with Clostridioides difficile [2] were 1 µg/mL (≈ 0.825 µM) and greater than 16 µg/mL, respectively.
